From patent US20040132648A1, “Remedies and/or preventives for conformational diseases” (priority 2001, published 2004)
Square brackets hold non-standard residues; d marks the D form. Nle = CCCC[C@H](N)C(=O)O

These substances were tested on PC12 cells (assay: Neuroprotective action against β-amyloid, viable cell count / survival rate by WST-8 method). Conditions: not given.
Format: cell-based, rat
Design: key to Neuroprotective action: +, P < 0.05 when compared with the no neuropeptide-added group
Method: An experiment was performed similarly to Example 5, and then the neuroprotective action against cell death by β-amyloid of the following PACAP-related neuropeptides (peptides 1, 2, 4, 5, 7, 8, 15, 16, 17, 19, 21, 26, 27, 28, 29, 30, 31, 32, 33, 34, 35, 36, 37, 38 and 39) and VIP-related neuropeptides (peptides 3, 9, 10, 11, 12, 13, 14, 18, 20, 22, 23, 24 and 25) was confirmed. Specifically, amyloid (50 μM) and each of the various PACAP-related neuropeptides and VIP-related neuropeptides were added to the cultured PC12 cells. The number of […] calculated by the WST-8 method, so that comparison and examination was performed for the neuroprotective action of these various peptides against amyloid. If the neuropeptides had neuroprotective action, a clear difference in viable cell count can be observed between cases in which neuropeptides were added and cases in which neuropeptides were not added. In PC12 cells added with each of the various neuropeptides, a case wherein a higher cell survival rate (P<0.05) was observed compared with groups in which neuropeptides had not been added, was determined as having neuroprotective action. The results are shown in Table 1 and Table 2. β-amyloid was added to PC12 cells that had been cultured similarly to Example 5. At this time, neuropeptides PACAP27, VIP and humanin, and a cell-permeable cAMP derivative were allowed to respectively co-exist, so that the effect of these neuropeptides against cell death by β-amyloid was confirmed. Cell death was examined by evaluating cell count using the WST-8 method, and then by calculating cell survival rate. […] In the presence of β-amyloid, approximately 70% of the cells died. […] The neuroprotective action of humanin, a recently found human-derived neuroprotective substance (Proc Natl Acad Sci USA (2001) 98 (11) 6336-6341), was also examined. […] At this time, neuropeptides at various concentrations were allowed to co-exist, so that the relationship between the neuroprotective action and the concentration was investigated. Cells were calculated by the WST-8 method, and then the extent to which cell death by β-amyloid could be attenuated was expressed numerically.

| Substance | Neuroprotective action |
| --- | --- |
| PACAP38 [Peptide 1] | + |

Same assay, conditions: PACAP-related neuropeptide 10^−9 M; amyloid (50 μM); cell survival rate vs no peptide

| Substance | Neuroprotective action |
| --- | --- |
| Arg-PACAP27 (H-HSDGIFTDSYSRYRRQLAVRRYLAAVL-NH2; ends and bridges not checked) [Peptide 6] | + |
| Arg-PACAP38 (H-HSDGIFTDSYSRYRRQLAVRRYLAAVLGRRYRQRVRNR-NH2; ends and bridges not checked) [Peptide 4] | + |
| PACAP27 (H-HSDGIFTDSYSRYRKQMAVKKYLAAVL-NH2; ends and bridges not checked) [Peptide 2] | + |
| PACAP27 highly basic derivative A (H-HSDGIFTDSYSRYRRQLAVRRYLAAVLGK-NH2; ends and bridges not checked) [Peptide 15] | + |
| PACAP27 highly basic derivative B (H-HSDGIFTDSYSRYRRQLAVRRYLAAVLGKR-NH2; ends and bridges not checked) [Peptide 16] | + |
| PACAP27 highly basic derivative C (H-HSDGIFTDSYSRYRRQLAVRRYLAAVLGRR-NH2; ends and bridges not checked) [Peptide 17] | + |
| PACAP long form (PACAP28) (H-HSDGIFTDSYSRYRKQMAVKKYLAAVLG-NH2; ends and bridges not checked) [Peptide 29] | + |
| PACAP long form (PACAP29) (H-HSDGIFTDSYSRYRKQMAVKKYLAAVLGK-NH2; ends and bridges not checked) [Peptide 30] | + |
| PACAP long form (PACAP30) (H-HSDGIFTDSYSRYRKQMAVKKYLAAVLGKR-NH2; ends and bridges not checked) [Peptide 31] | + |
| PACAP long form (PACAP31) (H-HSDGIFTDSYSRYRKQMAVKKYLAAVLGKRY-NH2; ends and bridges not checked) [Peptide 32] | + |
| PACAP long form (PACAP32) (H-HSDGIFTDSYSRYRKQMAVKKYLAAVLGKRYK-NH2; ends and bridges not checked) [Peptide 33] | + |
| PACAP long form (PACAP33) (H-HSDGIFTDSYSRYRKQMAVKKYLAAVLGKRYKQ-NH2; ends and bridges not checked) [Peptide 34] | + |
| PACAP long form (PACAP34) (H-HSDGIFTDSYSRYRKQMAVKKYLAAVLGKRYKQR-NH2; ends and bridges not checked) [Peptide 35] | + |
| PACAP long form (PACAP35) (H-HSDGIFTDSYSRYRKQMAVKKYLAAVLGKRYKQRV-NH2; ends and bridges not checked) [Peptide 36] | + |
| PACAP long form (PACAP36) (H-HSDGIFTDSYSRYRKQMAVKKYLAAVLGKRYKQRVK-NH2; ends and bridges not checked) [Peptide 37] | + |
| PACAP long form (PACAP37) (H-HSDGIFTDSYSRYRKQMAVKKYLAAVLGKRYKQRVKN-NH2; ends and bridges not checked) [Peptide 38] | + |
| PACAP short form (H-HSDGIFTDSYSRYRKQMAVKKYL-NH2; ends and bridges not checked) [Peptide 19] | + |
| PACAP short form (PACAP24) (H-HSDGIFTDSYSRYRKQMAVKKYLA-NH2; ends and bridges not checked) [Peptide 26] | + |
| PACAP short form (PACAP25) (H-HSDGIFTDSYSRYRKQMAVKKYLAA-NH2; ends and bridges not checked) [Peptide 27] | + |
| PACAP short form (PACAP26) (H-HSDGIFTDSYSRYRKQMAVKKYLAAV-NH2; ends and bridges not checked) [Peptide 28] | + |
| PACAP-like-peptide (stargazer-PACAP) (H-HSDGIFTDSYSRYRKQMAVQKYLAAVLGRRYRQRVRNK-NH2; ends and bridges not checked) [Peptide 5] | + |
| PACAP-like-peptide (stingray-PACAP) (H-HSDGIFTDSYSRYRKQMAVKKYLAAVLGKRYKPKRRNSGRRVFY-NH2; ends and bridges not checked) [Peptide 21] | + |
| [A^4, V^5, N^9]-PACAP27 [Peptide 8] | + |
| [A^4, V^5]-PACAP27 (H-HSDAVFTDSYSRYRKQMAVKKYLAAVL-NH2; ends and bridges not checked) [Peptide 7] | + |

Same assay, conditions: VIP-related neuropeptide 10^−7 M; amyloid (50 μM); cell survival rate vs no peptide

| Substance | Neuroprotective action |
| --- | --- |
| VIP highly basic derivative A (HSDAVFTDNYTRLRRQLAVRRYLNSILNGK) [Peptide 11] | + |
| VIP highly basic derivative B (HSDAVFTDNYTRLRRQLAVRRYLNSILNGKR) [Peptide 12] | + |
| VIP highly basic derivative C (HSDAVFTDNYTRLRRQLAVRRYLNSILNGRR) [Peptide 13] | + |
| VIP short form (HSDAVFTDNYTRLRKQMAVKKYL) [Peptide 20] | + |
| VIP short form (VIP24) (HSDAVFTDNYTRLRKQMAVKKYLN) [Peptide 22] | + |
| VIP short form (VIP25) (HSDAVFTDNYTRLRKQMAVKKYLNS) [Peptide 23] | + |
| VIP short form (VIP26) (HSDAVFTDNYTRLRKQMAVKKYLNSI) [Peptide 24] | + |
| VIP short form (VIP27) (HSDAVFTDNYTRLRKQMAVKKYLNSIL) [Peptide 25] | + |
| VIP/PACAP highly basic chimera peptide (H-HSDAVFTDNYTRLRRQ[Nle]AVRRYLNSILNGRRYRQRVRNR-NH2; ends and bridges not checked) [Peptide 18] | + |
| [G^4, I^5, S^9]-VIP (H-HSDGIFTDSYTRLRKQMAVKKYLNSILN-NH2; ends and bridges not checked) [Peptide 10] | + |
| [G^4, I^5]-VIP (H-HSDGIFTDNYTRLRKQMAVKKYLNSILN-NH2; ends and bridges not checked) [Peptide 9] | + |

Same assay, conditions: co-existing with β-amyloid; PACAP27 10^−9 M; FIG. 5

| Substance | neuroprotective action against cell death by β-amyloid (cell survival rate) |
| --- | --- |
| PACAP27 (H-HSDGIFTDSYSRYRKQMAVKKYLAAVL-NH2; ends and bridges not checked) [Peptide 2] | distinctly strong neuroprotective action |
| humanin (MAPRGFSCLLLLTSEIDLPVKRRA; Humanin; UniProt Q8IVG9 1-24, looked up) [a recently found human-derived neuroprotective substance, reference compound] | showed neuroprotective action, although the effect was also weaker than that of PACAP27 |

The substances below were run on PC12 cells (assay: Cell death by β-amyloid monitored by lactate dehydrogenase release). Conditions: β-amyloid 10^−5M; PACAP27 10^−9M; over time; 0.2 μM insulin-containing serum-free DMEM; FIG. 4.
Format: cell-based, rat

| Substance | neuroprotective action against cell death by β-amyloid (lactate dehydrogenase released into media) |
| --- | --- |
| PACAP27 (H-HSDGIFTDSYSRYRKQMAVKKYLAAVL-NH2; ends and bridges not checked) [Peptide 2] | cell death was very strongly suppressed |
